Results: US5061794A, “Cephalosporin derivatives, and antibacterial agents” (priority 1986, dated 1991)
Where two headings read alike, the source gives them in different places.

How the values were obtained:
E. coli CSH(RE45) = test: microbe, parasite or virus in culture; assay type: cell-based; conditions: Escherichia coli, 16 h, read-out: Minimum Inhibitory Concentration (MIC), *E. coli CSH(RE45), lactamase-producing strain; 10^6 CFU/ml
Outline: (§1)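 Agar dilution: MH agar + graded drug conc.; inoculum 10^6 CFU/ml (overnight MH broth culture, one loopful); 37° C., 16 h; MIC, μg/ml.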

E. coli CSH2 (RK1) = test: microbe, parasite or virus in culture; assay type: cell-based; conditions: Escherichia coli, 16 h, read-out: Minimum Inhibitory Concentration (MIC), *E. coli CSH2 (RK1), lactamase-producing strain; 10^6 CFU/ml
Outline: as §1

E. cloacae 963 = test: in vitro antibacterial activity, agar plate dilution method (MIC); assay type: cell-based; conditions: 10^6 CFU/ml
Outline: as §1

E. cloacae Nek 39 = test: as above; assay type: cell-based; conditions: Enterobacter cloacae, NEK39, 16 h, read-out: Minimum Inhibitory Concentration (MIC), *E. cloacae Nek 39, lactamase-producing strain; 10^6 CFU/ml
Outline: as §1

E. coli GN5482 = test: as above; assay type: cell-based; conditions: Escherichia coli, GN5482, 16 h
Outline: as §1

E. coli NIHJ JC2 = test: as above; assay type: cell-based; conditions: Escherichia coli, NIHJJC2, 16 h, read-out: Minimum Inhibitory Concentration (MIC), E. coli NIHJ JC2, 10^6 CFU/ml, 37° C.
Outline: as §1

K. oxytoca GN10650 = test: as above; assay type: cell-based; conditions: Klebsiella oxytoca, 10^6 CFU/ml
Outline: as §1

K. pneumoniae No. 42 = test: as above; assay type: cell-based; conditions: Klebsiella pneumoniae, 10^6 CFU/ml
Outline: as §1

K. pneumoniae PCI-602 = test: as above; assay type: cell-based; conditions: Klebsiella pneumoniae, PCI602, 16 h, 10^6 CFU/ml
Outline: as §1

M. morganii GN5407 = test: as above; assay type: cell-based; conditions: Morganella morganii, GN5407, 16 h, read-out: Minimum Inhibitory Concentration (MIC), *M. morganii GN5407, lactamase-producing strain; 10^6 CFU/ml
Outline: as §1

P. vulgaris HX-19 = test: as above; assay type: cell-based; conditions: Proteus vulgaris, HX19, 16 h, read-out: Minimum Inhibitory Concentration (MIC)
Outline: as §1

P. vulgaris No. 33 = test: as above; assay type: cell-based; conditions: Proteus vulgaris, NO.33, 16 h, read-out: Minimum Inhibitory Concentration (MIC), *P. vulgaris No. 33, lactamase-producing strain; 10^6 CFU/ml
Outline: as §1

S. aureus 209P NIHJ-JC1 = test: as above; assay type: cell-based; conditions: Staphylococcus aureus, 16 h
Outline: as §1

S. marcescens IAM 1184 = test: as above; assay type: cell-based; conditions: Serratia marcescens, IAM1184, 16 h, read-out: Minimum Inhibitory Concentration (MIC)
Outline: as §1

S. marcescens No. 16-2 = test: as above; assay type: cell-based; conditions: Serratia marcescens, NO.162, 16 h
Outline: as §1

Ps. aeruginosa AK 109 = test: as above; assay type: cell-based, Pseudomonas aeruginosa; conditions: Pseudomonas aeruginosa, AK109, 16 h, read-out: Minimum Inhibitory Concentration (MIC)
Outline: as §1

Ps. aeruginosa AKR17 = test: as above; assay type: cell-based, Pseudomonas aeruginosa; conditions: Pseudomonas aeruginosa, read-out: Minimum Inhibitory Concentration (MIC)
Outline: as §1

Ps. aeruginosa IF03445 = test: as above; assay type: cell-based, Pseudomonas aeruginosa; conditions: Pseudomonas aeruginosa, 10^6 CFU/ml
Outline: as §1

Ps. cepacia 23 = test: as above; assay type: cell-based, Pseudomonas cepacia; conditions: read-out: Minimum Inhibitory Concentration (MIC)
Outline: as §1

A. calcoaceticus No. 4 = test: as above; assay type: cell-based, Acinetobacter calcoaceticus; conditions: Acinetobacter calcoaceticus, NO.4, 16 h, 10^6 CFU/ml
Outline: as §1

[1] = Enterobacter cloacae, 16 h, E. cloacae 963, read-out: Minimum Inhibitory Concentration (MIC)
[2] = read-out: Minimum Inhibitory Concentration (MIC), *E. coli GN5482, lactamase-producing strain, 10^6 CFU/ml
[3] = GN10650, 16 h, read-out: Minimum Inhibitory Concentration (MIC), *K. oxytoca GN10650, lactamase-producing strain
[4] = NO.42, 16 h, read-out: Minimum Inhibitory Concentration (MIC), *K. pneumoniae No. 42, lactamase-producing strain
[5] = read-out: Minimum Inhibitory Concentration (MIC), K. pneumoniae PCI-602
[6] = S. aureus 209P NIHJ-JC1, 10^6 CFU/ml, 37° C., 16 hours, read-out: Minimum Inhibitory Concentration (MIC)
[7] = read-out: Minimum Inhibitory Concentration (MIC)
[8] = IF03445, 16 h, read-out: Minimum Inhibitory Concentration (MIC), Ps. aeruginosa IF03445
[9] = Burkholderia cepacia, 16 h, Ps. cepacia 23, 10^6 CFU/ml
[10] = read-out: Minimum Inhibitory Concentration (MIC), A. calcoaceticus No. 4
[11] = Enterobacter cloacae, 963, 16 h, read-out: Minimum Inhibitory Concentration (MIC), E. cloacae 963
[12] = read-out: Minimum Inhibitory Concentration (MIC), S. aureus 209P NIHJ-JC1, 10^6 CFU/ml, 37° C., 16 hours
[13] = 16 h, Ps. aeruginosa AKR17, 10^6 CFU/ml
[14] = A. calcoaceticus No. 4, read-out: Minimum Inhibitory Concentration (MIC)
[15] = read-out: Minimum Inhibitory Concentration (MIC), *S. marcescens No. 16-2, lactamase-producing strain, 10^6 CFU/ml
[16] = Ps. aeruginosa AK 109, 10^6 CFU/ml

## Nc1nc(/C(=N/OC2(C(=O)O)CC2)C(=O)N[C@@H]2C(=O)N3C(C(=O)O)=C(CSc4ncc(-c5ccc(O)c(O)c5)o4)CS[C@H]23)cs1 [Ex. 66, disodium 7β-[2-(2-aminothiazol-4-yl)-2-(1-carboxylate-1-cyclopropoxyimino)acetamido]-3-[5-(3,4-dihydroxyphenyl)oxazol-2-yl]thiomethyl-3-cephem-4-carboxylate]
E. coli CSH(RE45)
  MIC: 0.05 mg/L
E. coli CSH2 (RK1)
  MIC: 0.0125 mg/L
E. cloacae 963; [1]
  MIC: 0.2 mg/L
E. cloacae Nek 39
  MIC: 0.1 mg/L
E. coli GN5482; [2]
  MIC: 1.56 mg/L
E. coli NIHJ JC2
  MIC: 0.78 mg/L
K. oxytoca GN10650; [3]
  MIC: 0.1 mg/L
K. pneumoniae No. 42; [4]
  MIC: 0.1 mg/L
K. pneumoniae PCI-602; [5]
  MIC: < 0.006 mg/L
M. morganii GN5407
  MIC: 0.1 mg/L
P. vulgaris HX-19
  MIC: 0.0125 mg/L
P. vulgaris No. 33
  MIC: 0.025 mg/L
S. aureus 209P NIHJ-JC1; [6]
  MIC: 25 mg/L
S. marcescens IAM 1184; S. marcescens IAM 1184, 10^6 CFU/ml
  MIC: 0.05 mg/L
S. marcescens No. 16-2; [7]
  MIC: 3.12 mg/L
Ps. aeruginosa AK 109
  MIC: 0.39 mg/L
Ps. aeruginosa AKR17; AKR17, 16 h
  MIC: 3.12 mg/L
Ps. aeruginosa IF03445; [8]
  MIC: 0.78 mg/L
Ps. cepacia 23; [9]
  MIC: < 0.006 mg/L
A. calcoaceticus No. 4; [10]
  MIC: 0.1 mg/L

## C=CCO/N=C(\C(=O)N[C@@H]1C(=O)N2C(C(=O)O)=C(CSc3nnc(-c4ccc(O)c(O)c4)s3)CS[C@H]12)c1csc(N)n1 [compound 30, sodium 78-[2-allyloxyimino-2-(2-aminothiazol-4-yl)acetamido]-3-[5-(3,4-dihydroxyphenyl)-1,3,4-thiadiazol-2-yl]thiomethyl-3-cephem-4-carboxylate]
E. coli CSH(RE45)
  MIC: 0.78 mg/L
E. coli CSH2 (RK1)
  MIC: 0.0125 mg/L
E. cloacae 963; [11]
  MIC: 0.05 mg/L
E. cloacae Nek 39
  MIC: 0.1 mg/L
E. coli GN5482; [2]
  MIC: 0.78 mg/L
E. coli NIHJ JC2
  MIC: 0.2 mg/L
K. oxytoca GN10650; [3]
  MIC: 1.56 mg/L
K. pneumoniae No. 42; 16 h, *K. pneumoniae No. 42, lactamase-producing strain, read-out: Minimum Inhibitory Concentration (MIC)
  MIC: < 0.006 mg/L
K. pneumoniae PCI-602; [5]
  MIC: < 0.006 mg/L
M. morganii GN5407
  MIC: 0.05 mg/L
P. vulgaris HX-19; P. vulgaris HX-19, 10^6 CFU/ml
  MIC: < 0.006 mg/L
P. vulgaris No. 33
  MIC: 0.39 mg/L
S. aureus 209P NIHJ-JC1; [12]
  MIC: 0.78 mg/L
S. marcescens IAM 1184
  MIC: 0.0125 mg/L
S. marcescens No. 16-2; [7]
  MIC: 12.5 mg/L
Ps. aeruginosa AK 109
  MIC: 0.39 mg/L
Ps. aeruginosa AKR17; [13]
  MIC: 25 mg/L
Ps. aeruginosa IF03445; [8]
  MIC: 0.39 mg/L
Ps. cepacia 23; [9]
  MIC: < 0.006 mg/L
A. calcoaceticus No. 4; [14]
  MIC: 0.2 mg/L

## CCO/N=C(\C(=O)N[C@@H]1C(=O)N2C(C(=O)O)=C(CSc3nnc(-c4ccc(O)c(O)c4)o3)CS[C@H]12)c1csc(N)n1 [Ex. 5, sodium 7β-[2-(2-aminothiazol-4-yl)-2-ethoxyiminoacetamido]-3-[5-(3,4-dihydroxyphenyl)-1,3,4-oxadiazol-2-yl]thiomethyl-3-cephem-4-carboxylate]
E. coli CSH(RE45)
  MIC: 0.0125 mg/L
E. coli CSH2 (RK1)
  MIC: 0.0125 mg/L
E. cloacae 963; [11]
  MIC: 0.0125 mg/L
E. cloacae Nek 39
  MIC: 0.1 mg/L
E. coli GN5482; [7]
  MIC: 0.39 mg/L
E. coli NIHJ JC2
  MIC: 0.05 mg/L
K. oxytoca GN10650; [3]
  MIC: 0.78 mg/L
K. pneumoniae No. 42; [4]
  MIC: 0.05 mg/L
K. pneumoniae PCI-602; [5]
  MIC: < 0.006 mg/L
M. morganii GN5407
  MIC: 0.025 mg/L
P. vulgaris HX-19; P. vulgaris HX-19, 10^6 CFU/ml
  MIC: < 0.006 mg/L
P. vulgaris No. 33
  MIC: 0.025 mg/L
S. aureus 209P NIHJ-JC1; [12]
  MIC: 0.78 mg/L
S. marcescens IAM 1184
  MIC: 0.0125 mg/L
S. marcescens No. 16-2; [15]
  MIC: 0.78 mg/L
Ps. aeruginosa AK 109
  MIC: 0.39 mg/L
Ps. aeruginosa AKR17; [13]
  MIC: > 100 mg/L
Ps. aeruginosa IF03445; [8]
  MIC: 0.39 mg/L
Ps. cepacia 23; [9]
  MIC: < 0.006 mg/L
A. calcoaceticus No. 4; [10]
  MIC: 0.1 mg/L

## CC(C)(O/N=C(\C(=O)N[C@@H]1C(=O)N2C(C(=O)O)=C(CSc3nc(-c4ccccc4)cs3)CS[C@H]12)c1csc(N)n1)C(=O)O [compound 11, disodium 7β-[2-(2-aminothiazol-4-yl)-2-(1-carboxylate-1-methylethoxyimino)acetamido]-3-(4-phenylthiazol-2-yl) thiomethyl-3-cephem-4-carboxylate, reference compound]
E. coli CSH(RE45)
  MIC: 1.56 mg/L
E. coli CSH2 (RK1)
  MIC: 1.56 mg/L
E. cloacae 963; [1]
  MIC: 6.2 mg/L
E. cloacae Nek 39
  MIC: 12.5 mg/L
E. coli GN5482; [2]
  MIC: 1.56 mg/L
E. coli NIHJ JC2
  MIC: 3.12 mg/L
K. oxytoca GN10650; [3]
  MIC: 3.12 mg/L
K. pneumoniae No. 42; [4]
  MIC: 3.12 mg/L
K. pneumoniae PCI-602; [5]
  MIC: 0.1 mg/L
M. morganii GN5407
  MIC: 1.56 mg/L
P. vulgaris HX-19; P. vulgaris HX-19, 10^6 CFU/ml
  MIC: < 0.006 mg/L
P. vulgaris No. 33
  MIC: 0.78 mg/L
S. aureus 209P NIHJ-JC1; [7]
  MIC: 3.12 mg/L
S. marcescens IAM 1184
  MIC: 1.56 mg/L
S. marcescens No. 16-2; [15]
  MIC: 6.25 mg/L
Ps. aeruginosa AK 109; [16]
  MIC: 50 mg/L
Ps. aeruginosa AKR17; [13]
  MIC: > 100 mg/L
Ps. aeruginosa IF03445; [8]
  MIC: 12.5 mg/L
Ps. cepacia 23; Burkholderia cepacia, 23, 16 h
  MIC: 12.5 mg/L
A. calcoaceticus No. 4; [14]
  MIC: > 100 mg/L

## CO/N=C(\C(=O)N[C@@H]1C(=O)N2C(C(=O)O)=C(CSc3ncc(-c4ccc(O)cc4)o3)CS[C@H]12)c1csc(N)n1 [compound 23, sodium 7β-[2-(2-aminothiazol-4-yl)-2-methoxyiminoacetamido]-3-[5-(4-hydroxyphenyl)-oxazol-2-yl]thiomethyl-3-cephem-4-carboxylate, reference compound]
E. coli CSH(RE45)
  MIC: 0.78 mg/L
E. coli CSH2 (RK1)
  MIC: 0.78 mg/L
E. cloacae 963; [11]
  MIC: 3.12 mg/L
E. cloacae Nek 39
  MIC: 6.25 mg/L
E. coli GN5482; [2]
  MIC: 0.78 mg/L
E. coli NIHJ JC2
  MIC: 1.56 mg/L
K. oxytoca GN10650; 16 h, *K. oxytoca GN10650, lactamase-producing strain, read-out: Minimum Inhibitory Concentration (MIC)
  MIC: 25 mg/L
K. pneumoniae No. 42; [4]
  MIC: 3.12 mg/L
K. pneumoniae PCI-602; K. pneumoniae PCI-602, read-out: Minimum Inhibitory Concentration (MIC)
  MIC: 0.0125 mg/L
M. morganii GN5407
  MIC: 1.56 mg/L
P. vulgaris HX-19; P. vulgaris HX-19, 10^6 CFU/ml
  MIC: < 0.006 mg/L
P. vulgaris No. 33
  MIC: 0.78 mg/L
S. aureus 209P NIHJ-JC1; [6]
  MIC: 0.2 mg/L
S. marcescens IAM 1184
  MIC: 0.78 mg/L
S. marcescens No. 16-2; *S. marcescens No. 16-2, lactamase-producing strain, 10^6 CFU/ml, read-out: Minimum Inhibitory Concentration (MIC)
  MIC: 25 mg/L
Ps. aeruginosa AK 109; [16]
  MIC: 50 mg/L
Ps. aeruginosa AKR17; [13]
  MIC: > 100 mg/L
Ps. aeruginosa IF03445; 16 h, Ps. aeruginosa IF03445, read-out: Minimum Inhibitory Concentration (MIC)
  MIC: 50 mg/L
Ps. cepacia 23; Burkholderia cepacia, 23, 16 h
  MIC: 3.12 mg/L
A. calcoaceticus No. 4; [14]
  MIC: 50 mg/L
